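Cells were grown in 96-well plates and exposed to each compound for 48 hours at five concentrations; endpoints were interpolated linearly between bracketing concentrations, or set to the highest concentration if not reached. GI50 = concentration required for 50% inhibition of growth. TGI marks complete inhibition of growth.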

Test in all cases: inhibition of tumour cell growth, NCI panel, 48 h
Assay [1] relates to 786-0 renal.
Assay [2] relates to EKVX NSCLC.
Assay [3] has as its system KM12 colon.
Assay [4] deals with NCI-H460 lung.
The test system of assay [5] is SF-539 CNS.
The test system of assay [6] is SNB-19 CNS.
In assay [7] the test system is SNB-75 CNS.
The subject of assay [8] is SR leukemia.
Assay [9] deals with UACC-62 melanoma.
In assay [10] the test system is NCI-H226 lung.

As for `NCCNc1nc2ccc(F)cc2c2c(=O)c3cc(F)ccc3sc12`, the GI50 was 1.59 µM in assay [1]; 1.65 µM in [2]; 1.81 µM in assay [3]; 1.85 µM in assay [4]; 1.76 µM in [5]; 1.94 µM in assay [6]. Moreover, the results for the GI50 in assay [7], in [8] and in assay [9] were 0.138 µM, 1.98 µM and 1.66 µM, respectively. The TGI came out at 2.96 µM in assay [1]; 3.95 µM in [2]; 3.46 µM in assay [3]; 3.47 µM in assay [4]; 3.25 µM in assay [5]; 4.21 µM in assay [6]. Besides, the values for the TGI in assay [7], in [8] and in assay [9] were 5.02 µM, 4.91 µM and 3.06 µM, respectively.

For `O=C(CC(=O)c1cccc2ccccc12)C(=O)Nc1nccs1`, the TGI in [1], in [2], in assay [3], in [10], in assay [4] and in assay [5] was greater than 100 µM each time. In addition, the TGI in assay [7], in [8] and in [9] was greater than 100 µM each time.

With `O=c1c2cc(Br)ccc2n(C2OC(CO)C(O)C(O)C2O)c(=S)n1-c1ccccc1` (centres undefined), the TGI in assay [1], in assay [2], in [3], in assay [10], in assay [4] and in [5] was greater than 100 µM throughout. In addition, the TGI in [6], in assay [7] and in assay [8] was greater than 100 µM each time.

Regarding `CC1=CC[C@@H]2C(=O)C=CC=C[C@H]12.[C-]#[O+].[C-]#[O+].[C-]#[O+].[Fe]`, the GI50 in assay [1], in assay [3], in assay [10], in assay [4], in assay [5] and in [6] was greater than 100 µM throughout. The GI50 in assay [7] was 43.9 µM; in assay [8], greater than 100 µM; in [9] it was greater than 100 µM. For the same compound, the TGI in assay [1], in assay [3], in assay [10], in assay [4], in assay [5] and in [6] was greater than 100 µM each time. Further, the TGI in assay [7], in assay [8] and in assay [9] was greater than 100 µM in each case.

As for `O=C1c2ccccc2-c2c1c1ccc([N+](=O)[O-])cc1c(=O)n2CCN1CCOCC1`, the GI50 in assay [1] is greater than 100 µM; in [2], greater than 100 µM; in [3] it was greater than 100 µM; in [10] it was greater than 100 µM; in assay [4], 78.4 µM; in assay [6], 79.2 µM. Further, the GI50 in assay [7] was 35.5 µM; in assay [8] it was 15.5 µM; in assay [9] it was 82.7 µM. Moreover, the TGI in assay [1], in [2], in assay [3], in [10], in [4] and in assay [6] was greater than 100 µM throughout. Besides, the TGI in assay [7], in assay [8] and in assay [9] was greater than 100 µM throughout.

For `CCOc1cc(CCNC)c2c(ccc3ccc(OC)c(O)c32)c1OC`, the TGI in [1] is 32.1 µM; in assay [2] it was 36.3 µM; in assay [3], 26.4 µM; in [10], 46.9 µM; in assay [4], 32.9 µM; in [6], 30.1 µM. Also, the figures for the TGI in [7], in assay [8] and in assay [9] were 32.3 µM, 20.5 µM and 31.1 µM, respectively.

`Cc1cccc(/C=N/N=C(\N)NO)n1`: the TGI in [1] was greater than 100 µM; in [2] it was greater than 100 µM; in assay [3], greater than 100 µM; in [4], greater than 100 µM; in assay [5], greater than 100 µM; in assay [7] it was 80.8 µM. For the same compound, the results for the TGI in assay [8] and in assay [9] were greater than 100 µM and 8.83 µM, respectively.

In the case of `Nc1ncc(-c2ccc3ncnc(N4CCc5cc(F)c(Cl)cc54)c3c2)cc1C(F)(F)F`, the GI50 is 1.04 µM in assay [1]; 2.47 µM in [3]; 1.39 µM in assay [4]; 2.62 µM in [6]; 0.308 µM in assay [7]; 1.67 µM in [8]. For the same compound, the TGI in assay [1] was 4.79 µM; in assay [3], greater than 100 µM; in [4], greater than 100 µM; in [6] it was greater than 100 µM; in assay [7], 3.59 µM; in assay [8] it was greater than 100 µM.

On to `CCN1C(=O)N[C@H]2[C@@H]3NC(=O)c4ccc(Cl)n4[C@@H]3C[C@]21O`, for which the GI50 in [1] was 0.902 µM; in assay [2] it was 1.27 µM; in assay [3] it was 1.06 µM; in [10], 0.543 µM; in assay [4], 0.395 µM; in [5] it was 0.369 µM. For the same compound, the GI50 in [6] was 0.31 µM; in assay [7], 0.663 µM; in assay [8], 0.257 µM. In addition, the TGI in [1] turned out to be 9.06 µM; in [2] it was 6.89 µM; in [3], 33.7 µM; in assay [10], 5.7 µM; in assay [4], 16.6 µM; in assay [5] it was 2.57 µM. Moreover, the TGI was determined as 9.25 µM in assay [6], 7.63 µM in assay [7] and 0.983 µM in assay [8].

In the case of `O=C(/C=C/c1ccco1)N1CCN(Cc2ccccc2)CC1`, the TGI in assay [1], in assay [2], in assay [3], in assay [4], in assay [5] and in assay [6] was greater than 100 µM each time. In addition, the TGI in [7], in assay [8] and in assay [9] was greater than 100 µM in each case.

In the case of `Clc1ccc2c(NCCNc3nc(N4CCCCC4)nc4ccccc34)ccnc2c1`, the GI50 in assay [1] was 1.31 µM; in [2] it was 4.07 µM; in assay [3], 3.39 µM; in [10], 1.92 µM; in assay [5], 1.72 µM; in assay [6] it was 3.06 µM. Moreover, the GI50 in [7] was 1.78 µM; in [8], 1.23 µM; in [9], 1.95 µM. Further, the TGI is 2.78 µM in [1]; 17.2 µM in assay [2]; 12.7 µM in [3]; 4.05 µM in [10]; 3.42 µM in assay [5]; 15.6 µM in [6]. Moreover, the TGI was determined as 7.46 µM in assay [7], 4.53 µM in [8] and 3.7 µM in assay [9].

Turning to `COc1ccc2c3c1OC1C4(CCC5C(C2)N(CC2CC2)CCC351)OCCO4` (centres undefined), the TGI in assay [1], in assay [2], in [3], in [10], in assay [4] and in [6] was greater than 100 µM each time. Besides, the TGI in [7], in assay [8] and in assay [9] was greater than 100 µM each time.

For `O=C(Cc1ccccc1)N/N=C(/c1nc2ccc([N+](=O)[O-])cc2[nH]c1=O)C(O)c1ccco1` (centres undefined), the TGI in assay [1], in assay [2], in assay [3], in assay [10], in [4] and in assay [5] was greater than 100 µM throughout. For the same compound, the TGI in assay [7], in [8] and in assay [9] was greater than 100 µM throughout.

As to `COc1ccc(-n2nc(C(=O)NCC(=O)Nc3nc4cc(OC)ccc4s3)c3ccccc3c2=O)cc1`, the GI50 in assay [1] is 1.96 µM; in assay [2], 1.96 µM; in [10], 1.48 µM; in assay [4], 0.556 µM; in [5], 0.407 µM; in [6], 1.84 µM. Further, the GI50 was 0.554 µM in assay [7], greater than 20.5 µM in assay [8] and 1.76 µM in assay [9]. Moreover, the TGI is 8.19 µM in [1]; 14.8 µM in assay [2]; 7.5 µM in assay [10]; 1.27 µM in assay [5]; 6.07 µM in assay [6]; 2.08 µM in assay [7]. The compound also yielded a TGI in assay [8] greater than 100 µM.

As to `Cc1nc2sc(C(=O)Nc3cccc(Cl)c3C)c(N)c2cc1C(O)c1ccccc1` (centres undefined), the GI50 is 0.0667 µM in assay [1]; 0.268 µM in [2]; 0.0372 µM in assay [3]; 1.19 µM in assay [10]; 0.0347 µM in assay [4]; 0.0253 µM in [5]. The GI50 in [6] is 0.0604 µM; in assay [8], 0.021 µM; in assay [9], 0.087 µM. Besides, the TGI in assay [1] was 9.51 µM; in assay [2], 21.4 µM; in [3], 5.22 µM; in assay [10], 22.8 µM; in [4] it was 0.486 µM; in assay [5], 0.0805 µM. Besides, the values for the TGI in assay [6], in [8] and in assay [9] were 29.1 µM, 16.6 µM and 12 µM, respectively.

Take `OCC(O)C(OC1OC(CO)C(O)C(O)C1O)c1nn(-c2ccc(Cl)cc2)c2nc3cc(Cl)c(Cl)cc3nc12` (centres undefined): the TGI in [1], in [2], in [3], in assay [4], in assay [5] and in [6] was greater than 100 µM in each case. The TGI in [7], in [8] and in assay [9] was greater than 100 µM each time.

As to `COc1ccc(/C=C\c2cc(OC)c(OC)c(OC)c2)cc1N/C=C\C(=O)c1c[nH]c2ccccc12`, the GI50 is less than 0.01 µM in [1]; less than 0.01 µM in [3]; 0.016 µM in assay [10]; less than 0.01 µM in assay [4]; less than 0.01 µM in assay [5]; less than 0.01 µM in [6]. Also, the GI50 in [7] is less than 0.01 µM; in assay [8] it was less than 0.01 µM; in [9], 4.38 µM. The TGI in assay [1] is greater than 100 µM; in assay [3], 0.0254 µM; in assay [10], greater than 100 µM; in [4], 20.3 µM; in assay [5] it was less than 0.01 µM; in assay [6] it was greater than 100 µM. In addition, the TGI in assay [7] was greater than 100 µM; in [8] it was greater than 100 µM; in assay [9] it was 64.2 µM.

Regarding `C#CCn1c2c(c3ccccc3c1=O)C(=O)c1ccccc1-2`, the TGI in assay [1] is 32 µM; in assay [2], 58.8 µM; in assay [3], greater than 100 µM; in assay [10], 79.3 µM; in [5] it was 24.2 µM; in [7] it was 27.4 µM. Also, the TGI in assay [8] is greater than 100 µM; in assay [9] it was 57.1 µM.

Regarding `O=C(Oc1c(Cl)c(Cl)c(Cl)c(Cl)c1Cl)C1CCCN1C(=O)OCc1ccccc1` (centres undefined), the GI50 in [1] was 3.94 µM; in assay [3] it was 3.62 µM; in [10], 3.82 µM; in assay [4], 3.29 µM; in [5], 2.63 µM; in assay [6], 3.23 µM. Besides, the values for the GI50 in assay [7], in assay [8] and in assay [9] were 2.66 µM, 3.82 µM and 3.24 µM, respectively. The TGI in assay [1] came to 14.2 µM; in assay [3] it was 13 µM; in assay [10], 21.7 µM; in assay [4], 10.6 µM; in assay [5], 9.56 µM; in assay [6] it was 13.2 µM. For the same compound, the TGI was determined as 10.2 µM in assay [7], 15.7 µM in [8] and 12.6 µM in assay [9].

Regarding `CCOc1ccc2c(c1)[n+]([O-])c(-c1ccc([N+](=O)[O-])cc1)c(N)[n+]2[O-]`, the TGI in assay [1], in assay [2], in [3], in [10], in [4] and in [5] was greater than 100 µM in each case. Moreover, the TGI in assay [6], in assay [7] and in assay [8] was greater than 100 µM each time.

Turning to `Nc1ncnc2c1N=CN(Oc1ccccc1)N2`, the TGI in assay [1], in assay [2], in assay [3], in [10], in assay [4] and in [5] was greater than 100 µM in each case. Besides, the TGI in assay [7], in [8] and in [9] was greater than 100 µM each time.

Source of the values: PubChem BioAssay (NCI).
